In PubChem BioAssay (NCI):
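Method: 48-hour compound exposure of cells in 96-well plates, five concentrations, linear interpolation of endpoints. GI50 = concentration required for 50% inhibition of growth. TGI marks complete inhibition of growth.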

Tests used:
Assay in all cases: growth of human tumour cells (NCI), 48 h
HT29 colon = test system: HT29 colon
OVCAR-4 ovarian = test system: OVCAR-4 ovarian
CAKI-1 renal = test system: CAKI-1 renal
UO-31 renal = test system: UO-31 renal
K-562 leukemia = test system: K-562 leukemia
HCT-116 colon = test system: HCT-116 colon
SF-539 CNS = test system: SF-539 CNS
TK-10 renal = test system: TK-10 renal
PC-3 prostate = test system: PC-3 prostate
EKVX NSCLC = test system: EKVX NSCLC

Structure (SMILES) | GI50 (HT29 colon) | TGI (HT29 colon) | GI50 (OVCAR-4 ovarian) | TGI (OVCAR-4 ovarian) | GI50 (CAKI-1 renal) | TGI (CAKI-1 renal) | GI50 (UO-31 renal) | TGI (UO-31 renal) | GI50 (K-562 leukemia) | TGI (K-562 leukemia) | GI50 (HCT-116 colon) | TGI (HCT-116 colon) | GI50 (SF-539 CNS) | TGI (SF-539 CNS) | GI50 (TK-10 renal) | TGI (TK-10 renal) | GI50 (PC-3 prostate) | TGI (PC-3 prostate) | GI50 (EKVX NSCLC) | TGI (EKVX NSCLC)
Cc1[nH]c(/C=C2\C(=O)Nc3ccc(F)cc32)c(C)c1C(=O)NC[C@H](O)CN1CCOCC1 | 2.91 µM | > 10 µM | 7.95 µM | > 10 µM | 1.66 µM | > 10 µM | 1.47 µM | > 10 µM | 4.96 µM | > 10 µM | 2.42 µM | > 10 µM | 4.31 µM | > 10 µM | 5.37 µM | > 10 µM | 2.64 µM | > 10 µM | 8.02 µM | > 10 µM
COc1nc(C)cc2c(=O)n(-c3ccccc3)n(CCCN3CCN(c4ccc(Cl)cc4)CC3)c(=O)c12 | > 50 µM | > 50 µM | 17.6 µM | > 50 µM | 38.2 µM | > 50 µM | 31.9 µM | > 50 µM | 35 µM | > 50 µM | 27.5 µM | > 50 µM | > 50 µM | > 50 µM | > 50 µM | > 50 µM | 15.3 µM | > 50 µM | > 50 µM | > 50 µM
C[N+](C)(CCCCCC[N+](C)(C)CCCN1C(=O)c2cc3ccccc3cc2C1=O)CCCN1C(=O)c2ccccc2C1=O | > 37.5 µM | > 37.5 µM | > 37.5 µM | > 37.5 µM | > 37.5 µM | > 37.5 µM | > 37.5 µM | > 37.5 µM | > 37.5 µM | > 37.5 µM | > 37.5 µM | > 37.5 µM | > 37.5 µM | > 37.5 µM | > 37.5 µM | > 37.5 µM | > 37.5 µM | > 37.5 µM | > 37.5 µM | > 37.5 µM
CC(C)(O)C1OCC(C2CCC3(C)C4=CCC5C(C)(C)C(O)CCC5(C)C4CCC23C)CC1O (stereo not drawn) |  | 25.7 µM |  | 27.5 µM |  | 29.4 µM |  | 41.8 µM |  | 17.3 µM |  | 27.6 µM |  | 26.4 µM |  | 25.9 µM |  | 26.7 µM |  | 32.3 µM
COC(=O)/C(=C\c1c(C)[nH]c2ccccc12)S(=O)(=O)c1ccccc1 | 5.23 µM | > 100 µM | 5.71 µM | > 100 µM | 3.33 µM | 16.7 µM | 4.39 µM | 18.4 µM | > 100 µM | > 100 µM | 3.8 µM | 17.3 µM | 3.4 µM | 11.5 µM | 8.07 µM | 96.6 µM | 5.54 µM | > 100 µM | 5.04 µM | > 100 µM
OCCCCC#Cc1ccccc1C#Cc1ccccc1C(F)(F)F | 4.01 µM | 16.5 µM | 18.4 µM | 36.4 µM | 5.37 µM | 17.9 µM | 11.8 µM | 24.1 µM | 1.09 µM | 13.9 µM | 6.46 µM | 21.3 µM | 12 µM | 25.2 µM | 18.6 µM | 47.1 µM | 8.77 µM | 21 µM | 12.7 µM | 26.8 µM
O=C1OC(=O)C2C1C1(c3ccccc3)C(c3ccccc3)=C(c3ccccc3)C2(c2ccccc2)S1=O (stereo not drawn) | > 100 µM | > 100 µM | > 100 µM | > 100 µM | > 100 µM | > 100 µM | > 100 µM | > 100 µM | 78.2 µM | > 100 µM | > 100 µM | > 100 µM | > 100 µM | > 100 µM | > 100 µM | > 100 µM | 87.7 µM | > 100 µM | > 100 µM | > 100 µM
Cc1ccc2c(N)c(C(=O)N[C@H]3CCc4cc(N5CC6CCC(C5)N6)ccc4C3)sc2n1 | 0.257 µM | 3.22 µM | 0.301 µM | 1.96 µM | 0.357 µM | 2.96 µM | 0.577 µM | 3.24 µM | 0.203 µM | 18 µM | 0.251 µM | 3.44 µM | 0.531 µM | 2.21 µM | 0.434 µM | 3.26 µM | 0.676 µM |  | 0.572 µM | 2.34 µM
Cc1nc2cccc(NCc3ccc(C(=O)NO)cc3)c2c(=O)n1-c1ccccc1 | 2.81 µM | 11.6 µM | 2.67 µM | 9.64 µM | 1.67 µM | 3.62 µM | 1.37 µM | 3.15 µM | 2.52 µM | > 100 µM | 1.35 µM | 4.76 µM | 1.89 µM | 4.05 µM | 1.76 µM | 6.07 µM | 1.9 µM | 6.14 µM | 2.08 µM | 4.9 µM
Cc1cc2c(F)c(Oc3ncnn4cc(OC[C@@H](C)OC(=O)[C@H](C)N)c(C)c34)ccc2[nH]1 | 5.73 µM | 18.9 µM | 11.3 µM | 23.8 µM | 7.21 µM | 21.5 µM | 7.58 µM | 21.4 µM | 3.83 µM | 20.2 µM | 3.38 µM | 18.9 µM | 4.81 µM | 17.3 µM | 13.5 µM | 27.1 µM | 5.28 µM | 23.9 µM | 13.5 µM | 26.9 µM
COc1c(O)ccc2c1CN1CCc3cc4c(cc3C1C2)OCO4 (stereo not drawn) |  | > 100 µM |  | > 100 µM |  | > 100 µM |  | > 100 µM |  | > 100 µM |  | > 100 µM |  | > 100 µM |  | > 79.6 µM |  | > 100 µM |  | > 100 µM
CC1=Cc2cc3[n-]c(cc4nc(cc5[n-]c(cc1n2)cc5C)C(C)=C4CCC(=O)O)c(CCC(=O)O)c3C.[Pd+2] | 14.8 µM | 36.3 µM |  | > 46.8 µM | 27 µM | 48.6 µM | 9.73 µM | 21.5 µM | 11 µM | > 37 µM | 24.1 µM | 41.4 µM | 3.71 µM | 13.7 µM | 24.9 µM | 52.9 µM | > 100 µM | > 100 µM | > 28.9 µM | > 54.6 µM
